In PubChem BioAssay (NCI):
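All cell lines were grown in 96-well plates and treated with compound for 48 hours. GI50: concentration for 50% inhibition of growth. Definition used: TGI = concentration required for complete inhibition of growth.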

Columns and labels:
Test in all cases: growth of human tumour cells (NCI), 48 h
[1] = test system: HCT-116 colon
[2] = test system: NCI-H226 lung
[3] = test system: SK-OV-3 ovarian
[4] = test system: HCC-2998 colon
[5] = test system: NCI-H460 lung
[6] = test system: SF-295 CNS
[7] = test system: U251 CNS
[8] = test system: HCT-15 colon
[9] = test system: OVCAR-8 ovarian
[10] = test system: SK-MEL-2 melanoma
[11] = test system: T-47D breast
[12] = test system: IGROV1 ovarian
[13] = test system: UO-31 renal
[14] = test system: A549 NSCLC
[15] = test system: NCI/ADR-RES ovarian
[16] = test system: RPMI-8226 leukemia
[17] = test system: SF-268 CNS
[18] = test system: OVCAR-4 ovarian
[19] = test system: UACC-257 melanoma
[20] = test system: SNB-19 CNS
[21] = test system: SW-620 colon
[22] = test system: MOLT-4 leukemia
[23] = test system: HS 578T breast
[24] = test system: CCRF-CEM leukemia
[25] = test system: HOP-62 NSCLC
[26] = test system: ACHN renal
[27] = test system: MDA-MB-231 breast
[28] = test system: OVCAR-3 ovarian
[29] = test system: SNB-75 CNS
[30] = test system: COLO 205 colon
[31] = test system: A498 renal
[32] = test system: 786-0 renal
[33] = test system: DU-145 prostate
[34] = test system: K-562 leukemia
[35] = test system: EKVX NSCLC
[36] = test system: UACC-62 melanoma
[37] = test system: OVCAR-5 ovarian
[38] = test system: LOX IMVI melanoma
[39] = test system: SF-539 CNS
[40] = test system: HT29 colon
[41] = test system: SK-MEL-28 melanoma
[42] = test system: M14 melanoma
[43] = test system: RXF 393 renal
[44] = test system: KM12 colon
[45] = test system: MDA-MB-435
[46] = test system: HL-60(TB) leukemia
[47] = test system: SN12C renal
[48] = test system: TK-10 renal
[49] = test system: PC-3 prostate
[50] = test system: MALME-3M melanoma
[51] = test system: HOP-92 NSCLC
[52] = test system: SK-MEL-5 melanoma
[53] = test system: MCF7 breast
[54] = test system: BT-549 breast
[55] = test system: NCI-H23 lung
[56] = test system: SR leukemia
[57] = test system: NCI-H522 lung
[58] = test system: CAKI-1 renal

## C#CCN(C)CCCOc1ccc(NCc2ccc(/C=C/C(=O)NO)cc2)cc1Cl
[1]
  GI50: 274 nM
  TGI: 1700 nM
[2]
  GI50: 1490 nM
  TGI: 4170 nM
[3]
  GI50: 645 nM
  TGI: 2990 nM
[4]
  GI50: 382 nM
  TGI: 1910 nM
[5]
  GI50: 430 nM
  TGI: 3210 nM
[6]
  GI50: 634 nM
  TGI: 2030 nM
[7]
  GI50: 502 nM
  TGI: 2420 nM
[8]
  GI50: 512 nM
  TGI: 4600 nM
[9]
  GI50: 369 nM
  TGI: > 48300 nM
[10]
  GI50: 2050 nM
  TGI: 6610 nM
[11]
  GI50: 338 nM
  TGI: > 31000 nM
[12]
  GI50: 361 nM
  TGI: 1570 nM
[13]
  GI50: 299 nM
  TGI: 1550 nM
[14]
  GI50: 528 nM
  TGI: 2540 nM
[15]
  GI50: 295 nM
  TGI: 5350 nM
[16]
  GI50: 316 nM
  TGI: 2820 nM
[17]
  GI50: 1360 nM
  TGI: 4650 nM
[18]
  GI50: 1400 nM
  TGI: 19400 nM
[19]
  GI50: 419 nM
  TGI: 18200 nM
[20]
  GI50: 1030 nM
  TGI: 4060 nM
[21]
  GI50: 235 nM
  TGI: 856 nM
[22]
  GI50: 330 nM
  TGI: 17100 nM
[23]
  GI50: 582 nM
  TGI: 6220 nM
[24]
  GI50: 264 nM
  TGI: > 100000 nM
[25]
  GI50: 601 nM
  TGI: 3240 nM
[26]
  GI50: 379 nM
  TGI: 1690 nM
[27]
  GI50: 502 nM
  TGI: 4500 nM
[28]
  GI50: 478 nM
  TGI: 2490 nM
[29]
  GI50: 474 nM
  TGI: 2920 nM
[30]
  GI50: 374 nM
  TGI: 1920 nM
[31]
  GI50: 417 nM
  TGI: 1730 nM
[32]
  GI50: 1130 nM
  TGI: 2750 nM
[33]
  GI50: 412 nM
  TGI: 5280 nM
[34]
  GI50: 297 nM
  TGI: > 100000 nM
[35]
  GI50: 954 nM
  TGI: 6800 nM
[36]
  GI50: 367 nM
  TGI: 1900 nM
[37]
  GI50: 330 nM
  TGI: 2670 nM
[38]
  GI50: 475 nM
  TGI: 1360 nM
[39]
  GI50: 717 nM
  TGI: 2900 nM
[40]
  GI50: 345 nM
  TGI: 4770 nM
[41]
  GI50: 485 nM
  TGI: 1920 nM
[42]
  GI50: 465 nM
  TGI: 2100 nM
[43]
  GI50: 249 nM
  TGI: 799 nM
[44]
  GI50: 1020 nM
  TGI: 6800 nM
[45]
  GI50: 330 nM
  TGI: 1280 nM
[46]
  GI50: 331 nM
  TGI: 17300 nM
[47]
  GI50: 1050 nM
  TGI: 7340 nM
[48]
  GI50: 387 nM
  TGI: 3290 nM
[49]
  GI50: 509 nM
  TGI: 6850 nM
[50]
  GI50: 242 nM
  TGI: 1590 nM
[51]
  GI50: 340 nM
  TGI: 1410 nM
[52]
  GI50: 373 nM
  TGI: 1340 nM
[53]
  GI50: 421 nM
  TGI: 11800 nM
[54]
  GI50: 1370 nM
  TGI: 6090 nM
[55]
  GI50: 814 nM
  TGI: 2660 nM
[56]
  GI50: 360 nM
  TGI: > 100000 nM
[57]
  GI50: 407 nM
  TGI: 2580 nM
[58]
  GI50: 544 nM
  TGI: 2210 nM
